Tests used:
Assay type in all cases: cell-based
[1] = system: Proteus vulgaris; experiment: MIC against Gram-negative bacteria: Proteus vulgaris; conditions: for MIC against P. vulgaris: Proteus vulgaris; for MIC against P. vulgaris / MIC P. vulgaris: 5×10^5 CFU/mL; for MIC: P. vulgaris
Method in brief: (§1)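 MIC, the lowest recombinant protein concentration giving no bacterial growth, found by two-fold serial dilution of human EGF-domain proteins in triplicate. Inoculum 5×10^5 CFU/mL in LB from cultures at McFarland 0.5; plates incubated at 37° C, 175 rpm shaking.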

[2] = system: Enterobacter cloacae; experiment: MIC against Gram-negative bacteria: Enterobacter cloacae; conditions: for MIC against E. cloacae: Enterobacter cloacae; for MIC against E. cloacae / MIC E. cloacae: 5×10^5 CFU/mL; for MIC: E. cloacae
Method in brief: as §1

[3] = system: Serratia marcescens; experiment: MIC against Gram-negative bacteria: Serratia marcescens; conditions: for MIC against S. marcescens: Serratia marcescens; for MIC against S. marcescens / MIC S. marcescens: 5×10^5 CFU/mL; for MIC: S. marcescens
Method in brief: as §1

[4] = system: Pseudomonas aeruginosa; experiment: MIC against Gram-negative bacteria: Pseudomonas aeruginosa; conditions: for MIC against P. aeruginosa: Pseudomonas aeruginosa; for MIC against P. aeruginosa / MIC P. aeruginosa: 5×10^5 CFU/mL; for MIC: P. aeruginosa
Method in brief: as §1

[5] = system: Proteus mirabilis; experiment: MIC against Gram-negative bacteria: Proteus mirabilis; conditions: for MIC against P. mirabilis: Proteus mirabilis; for MIC against P. mirabilis / MIC P. mirabilis: 5×10^5 CFU/mL; for MIC: P. mirabilis
Method in brief: as §1

[6] = system: Aeromonas hydrophila; experiment: MIC against Gram-negative bacteria: Aeromonas hydrophila; conditions: for MIC against A. hydrophila: Aeromonas hydrophila; for MIC against A. hydrophila / MIC A. hydrophila: 5×10^5 CFU/mL; for MIC: A. hydrophila
Method in brief: as §1

[7] = system: E. coli DH5α; experiment: Antibacterial activity: MIC and growth curve against E. coli DH5α in 96-well plate; conditions: minimal inhibitory concentration against E. coli DH5α; 96-well plate, 5×10^5 CFU/mL, 37° C., judged after 8 h
Method in brief: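 MIC taken as lowest protein level with no bacterial growth, tracked by A600 every 30 min during 37 °C, 175 rpm culture. Two-fold protein series 50-12.5 μg/mL final, triplicate wells, against 5×10^5 CFU/mL of LB-washed mid-log cells.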

[8] = system: Citrobacter diversus; experiment: MIC against Gram-negative bacteria: Citrobacter diversus; conditions: for MIC against C. diversus: Citrobacter diversus; for MIC against C. diversus / MIC C. diversus: 5×10^5 CFU/mL; for MIC: C. diversus
Method in brief: as §1

[9] = system: E. coli BL21; experiment: MIC against Gram-negative bacteria: E. coli BL21; conditions: for MIC against E. coli BL21 / MIC E. coli BL21: 5×10^5 CFU/mL; for MIC against E. coli BL21 / MIC: E. coli BL21
Method in brief: as §1

[10] = system: Moraxella catarrhalis; experiment: MIC against Gram-negative bacteria: Moraxella catarrhalis; conditions: for MIC against M. catarrhalis: Moraxella catarrhalis; for MIC against M. catarrhalis / MIC M. catarrhalis: 5×10^5 CFU/mL; for MIC: M. catarrhalis
Method in brief: as §1

[11] = system: Klebsiella pneumonia; experiment: MIC against Gram-negative bacteria: Klebsiella pneumonia; conditions: for MIC against K. pneumonia: Klebsiella pneumonia; for MIC against K. pneumonia / MIC K. pneumonia: 5×10^5 CFU/mL; for MIC: K. pneumonia
Method in brief: as §1

[12] = 10 h cultivation at 37° C., two-fold serial dilution

PRT1264 (DIDECGNELNGGCVHDCLNIPGNYRCTCFDGFMLAHDGHNCL; listed as Homo sapiens)
MIC against P. vulgaris ([1]; 96-well plate, 37° C., 10 h): 50 µg/mL | MIC against E. cloacae ([2]; 96-well plate, 37° C., 10 h): 12.5 µg/mL | MIC against S. marcescens ([3]; 96-well plate, 37° C., 10 h): 12.5 µg/mL | MIC against P. aeruginosa ([4]; 96-well plate, 37° C., 10 h): 12.5 µg/mL | MIC against P. mirabilis ([5]; 96-well plate, 37° C., 10 h): 12.5 µg/mL | MIC against A. hydrophila ([6]; 96-well plate, 37° C., 10 h): 25 µg/mL | MIC [7]: 12.5 µg/mL | MIC against C. diversus ([8]; 96-well plate, 37° C., 10 h): 12.5 µg/mL | MIC against E. coli BL21 ([9]; 96-well plate, 37° C., 10 h): 50 µg/mL | MIC against M. catarrhalis ([10]; 96-well plate, 37° C., 10 h): 50 µg/mL | MIC against K. pneumonia ([11]; 96-well plate, 37° C., 10 h): 25 µg/mL

PRT949 (FVDVCPQMPCLNGGTCAVASNMPDGFICRCPPGFSGARCQ; listed as Homo sapiens)
MIC ([1]; 10 h cultivation at 37° C.): 12.5 µg/mL | MIC ([2]; 10 h cultivation at 37° C.): 12.5 µg/mL | MIC ([3]; 10 h cultivation at 37° C.): 25 µg/mL | MIC ([4]; 10 h cultivation at 37° C.): 50 µg/mL | MIC ([5]; 10 h cultivation at 37° C.): 50 µg/mL | MIC ([6]; 10 h cultivation at 37° C.): 50 µg/mL | MIC [7]: 12.5 µg/mL | MIC ([8]; 10 h cultivation at 37° C.): 12.5 µg/mL | MIC ([9]; 10 h cultivation at 37° C.): 25 µg/mL | MIC ([10]; 10 h cultivation at 37° C.): 25 µg/mL | MIC ([11]; 10 h cultivation at 37° C.): 25 µg/mL

PRT1404 (RAACPVLCSGNGQYSKGRCLCFSGWKGTECD; listed as Homo sapiens)
MIC against P. vulgaris ([1]; 10 h cultivation at 37° C.): 25 µg/mL | MIC against E. cloacae ([2]; 10 h cultivation at 37° C.): 12.5 µg/mL | MIC against S. marcescens ([3]; 10 h cultivation at 37° C.): 50 µg/mL | MIC against P. aeruginosa ([4]; 10 h cultivation at 37° C.): 50 µg/mL | MIC against P. mirabilis ([5]; 10 h cultivation at 37° C.): 12.5 µg/mL | MIC against A. hydrophila ([6]; 10 h cultivation at 37° C.): 25 µg/mL | MIC [7]: 12.5 µg/mL | MIC against C. diversus ([8]; 10 h cultivation at 37° C.): 50 µg/mL | MIC against E. coli BL21 ([9]; 10 h cultivation at 37° C.): 25 µg/mL | MIC against M. catarrhalis ([10]; 10 h cultivation at 37° C.): 25 µg/mL | MIC against K. pneumonia ([11]; 10 h cultivation at 37° C.): 25 µg/mL

PRT1115 (PTLPCEANPCLNGGTCRAAGGVSECICNARFSGQFCE; listed as Homo sapiens)
MIC P. vulgaris [1, 12]: 12.5 µg/mL | MIC E. cloacae [2, 12]: 12.5 µg/mL | MIC S. marcescens [3, 12]: 12.5 µg/mL | MIC P. aeruginosa [4, 12]: 12.5 µg/mL | MIC P. mirabilis [5, 12]: 12.5 µg/mL | MIC A. hydrophila [6, 12]: 12.5 µg/mL | MIC [7]: 50 µg/mL | MIC C. diversus [8, 12]: 12.5 µg/mL | MIC E. coli BL21 [9, 12]: 25 µg/mL | MIC M. catarrhalis [10, 12]: 12.5 µg/mL | MIC K. pneumonia [11, 12]: 50 µg/mL

PRT897 (DPNPCLSTPCKNAGTCHVVDRRGVADYACSCALGFSGPLCL; listed as Homo sapiens)
MIC ([1]; 10 h cultivation at 37° C.): 12.5 µg/mL | MIC ([2]; 10 h cultivation at 37° C.): 12.5 µg/mL | MIC ([3]; 10 h cultivation at 37° C.): 25 µg/mL | MIC ([4]; 10 h cultivation at 37° C.): 12.5 µg/mL | MIC ([5]; 10 h cultivation at 37° C.): 25 µg/mL | MIC ([6]; 10 h cultivation at 37° C.): 50 µg/mL | MIC [7]: 50 µg/mL | MIC ([8]; 10 h cultivation at 37° C.): 12.5 µg/mL | MIC ([9]; 10 h cultivation at 37° C.): 25 µg/mL | MIC ([10]; 10 h cultivation at 37° C.): 50 µg/mL | MIC ([11]; 10 h cultivation at 37° C.): 50 µg/mL

PRT905 (DVNECDSQPCLHGGTCQDGCGSYRCTCPQGYTGPNCQ; listed as Homo sapiens)
MIC ([1]; 10 h cultivation at 37° C.): 50 µg/mL | MIC ([2]; 10 h cultivation at 37° C.): 50 µg/mL | MIC ([3]; 10 h cultivation at 37° C.): 12.5 µg/mL | MIC ([4]; 10 h cultivation at 37° C.): 12.5 µg/mL | MIC ([5]; 10 h cultivation at 37° C.): 12.5 µg/mL | MIC ([6]; 10 h cultivation at 37° C.): 12.5 µg/mL | MIC [7]: 25 µg/mL | MIC ([8]; 10 h cultivation at 37° C.): 50 µg/mL | MIC ([9]; 10 h cultivation at 37° C.): 50 µg/mL | MIC ([10]; 10 h cultivation at 37° C.): 25 µg/mL | MIC ([11]; 10 h cultivation at 37° C.): 25 µg/mL

PRT735 (GEENCNVNNGGCAQKCQMVRGAVQCTCHTGYRLTEDGHTCQ; listed as Homo sapiens)
MIC P. vulgaris ([1]; 96-well plate, 37° C., 10 h): 50 µg/mL | MIC E. cloacae ([2]; 96-well plate, 37° C., 10 h): 12.5 µg/mL | MIC S. marcescens ([3]; 96-well plate, 37° C., 10 h): 25 µg/mL | MIC P. aeruginosa ([4]; 96-well plate, 37° C., 10 h): 12.5 µg/mL | MIC P. mirabilis ([5]; 96-well plate, 37° C., 10 h): 12.5 µg/mL | MIC A. hydrophila ([6]; 96-well plate, 37° C., 10 h): 25 µg/mL | MIC [7]: 12.5 µg/mL | MIC C. diversus ([8]; 96-well plate, 37° C., 10 h): 50 µg/mL | MIC E. coli BL21 ([9]; 96-well plate, 37° C., 10 h): 50 µg/mL | MIC M. catarrhalis ([10]; 96-well plate, 37° C., 10 h): 25 µg/mL | MIC K. pneumonia ([11]; 96-well plate, 37° C., 10 h): 25 µg/mL
